Read-outs that look alike come from different tables or passages of the source.
Test system: CD-1 mice
Description: Lethal doses LD10 of a cytostatic active substance determinated in mice is generally considered as being a significative correlation with the maximum tolerated doses (MTD) in man.

## O=C1[O][Pt]2([NH]C3CCCCC3[NH]2)[O]C1=O (stereo not drawn) [Example 1, cis-oxalate (trans l-1,2-cyclohexanediamine)-platinum (II)]
Same solution with addition of oxalic acid at a final concentration of 0.2 mM (second group)
  LD10: around 14.4
Solution of the oxaliplatin active substance alone (first group)
  LD10: around 18.0 mg/kg
